Target: T1, hM5 (Homo sapiens, UniProt P08912)
T1 construct: expressed in transfected cells
T1 sequence (P08912 1-532): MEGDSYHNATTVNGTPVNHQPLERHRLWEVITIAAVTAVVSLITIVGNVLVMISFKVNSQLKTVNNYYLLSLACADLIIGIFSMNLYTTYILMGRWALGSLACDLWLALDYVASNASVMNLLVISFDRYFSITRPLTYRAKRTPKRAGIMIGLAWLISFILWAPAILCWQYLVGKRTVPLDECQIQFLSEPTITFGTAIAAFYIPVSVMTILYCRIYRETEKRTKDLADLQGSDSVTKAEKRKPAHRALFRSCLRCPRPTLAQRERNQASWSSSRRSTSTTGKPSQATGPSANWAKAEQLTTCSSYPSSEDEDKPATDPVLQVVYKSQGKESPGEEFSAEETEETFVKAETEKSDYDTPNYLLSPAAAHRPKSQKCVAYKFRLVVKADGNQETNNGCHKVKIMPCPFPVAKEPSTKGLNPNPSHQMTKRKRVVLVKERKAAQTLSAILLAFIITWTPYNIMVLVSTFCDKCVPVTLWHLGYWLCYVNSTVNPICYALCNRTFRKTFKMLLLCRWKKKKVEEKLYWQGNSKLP
Assay: Calcium mobilization concentration-response (IC50 vs EC80 acetylcholine), CHO hM5
Assay type: cell-based
Settings: CELL LINE hM5; calcium mobilization, EC80 acetylcholine addition; read-out: IC50
How it was run: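 IC50 values derive from percent maximal acetylcholine response after an EC80 ACh addition, measured as kinetic calcium fluorescence (static ratio, max−min). Test compounds were added 140 s before agonist. Cells: stable hM5-CHO in HEPES-buffered HBSS with 2.5 mM probenecid, pH 7.4; ≥3 independent triplicate determinations.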

SMILES	IC50 [µM]
Cc1sc(C#N)nc1C1=CCN(S(=O)(=O)c2cnn(C)c2C)CC1 [Compound 204, 4-(1-((1,5-dimethyl-1H-pyrazol-4-yl)sulfonyl)-1,2,3,6-tetrahydropyridin-4-yl)-5-methylthiazole-2-carbonitrile]	> 10
Cc1sc(C#N)nc1C1=CCN(S(=O)(=O)c2ccc3c(c2)CCO3)CC1 [Compound 205, 4-(1-((2,3-dihydrobenzofuran-5-yl)sulfonyl)-1,2,3,6-tetrahydropyridin-4-yl)-5-methylthiazole-2-carbonitrile]	> 10
O=S(=O)(c1cnc2n1CCC2)N1CC=C(c2cc3ncnn3cc2Cl)CC1 [Compound 206, 6-chloro-7-(1-((6,7-dihydro-5H-pyrrolo[1,2-a]imidazol-3-yl)sulfonyl)-1,2,3,6-tetrahydropyridin-4-yl)-[1,2,4]triazolo[1,5-a]pyridine]	> 10
O=S(=O)(c1cnc2n1CCC2)N1CC=C(c2cn3ncnc3cc2Cl)CC1 [Compound 207, 7-chloro-6-(1-((6,7-dihydro-5H-pyrrolo[1,2-a]imidazol-3-yl)sulfonyl)-1,2,3,6-tetrahydropyridin-4-yl)-[1,2,4]triazolo[1,5-a]pyridine]	1.6
Cc1cc2ncnn2nc1C1CCN(S(=O)(=O)c2cnc3n2CCC3)CC1 [Compound 208, 6-(1-((6,7-dihydro-5H-pyrrolo[1,2-a]imidazol-3-yl)sulfonyl)piperidin-4-yl)-7-methyl-[1,2,4]triazolo[1,5-b]pyridazine]	> 10
Cc1cc(C#N)cnc1C1=CCN(S(=O)(=O)c2cnn(C)c2C)CC1 [Compound 209, 1′-((1,5-dimethyl-1H-pyrazol-4-yl)sulfonyl)-3-methyl-1′,2′,3′,6′-tetrahydro-[2,4′-bipyridine]-5-carbonitrile]	> 10
Cc1cc(C#N)cnc1C1=CCN(S(=O)(=O)c2ccc3c(c2)CCO3)CC1 [Compound 210, 1′-((2,3-dihydrobenzofuran-5-yl)sulfonyl)-3-methyl-1′,2′,3′,6′-tetrahydro-[2,4′-bipyridine]-5-carbonitrile]	> 10
Cc1sc(C(N)=O)nc1C1CCN(S(=O)(=O)c2ccc3c(c2)CCO3)CC1 [Compound 211, 4-(1-((2,3-dihydrobenzofuran-5-yl)sulfonyl)piperidin-4-yl)-5-methylthiazole-2-carboxamide]	> 10
Cc1cn2ncnc2cc1C1=CCN(S(=O)(=O)c2cnn(C)c2C)CC1 [Compound 212, 7-(1-((1,5-dimethyl-1H-pyrazol-4-yl)sulfonyl)-1,2,3,6-tetrahydropyridin-4-yl)-6-methyl-[1,2,4]triazolo[1,5-a]pyridine]	1.4
Cc1sc(C(N)=O)nc1C1CCN(S(=O)(=O)c2cnn(C)c2C)CC1 [Compound 213, 4-(1-((1,5-Dimethyl-1H-pyrazol-4-yl)sulfonyl)piperidin-4-yl)-5-methylthiazole-2-carboxamide]	5.8
Cc1ncc(S(=O)(=O)N2CCC(c3nn4ncnc4cc3C)CC2)s1 [Compound 214, 2-methyl-5-((4-(7-methyl-[1,2,4]triazolo[1,5-b]pyridazin-6-yl)piperidin-1-yl)sulfonyl)thiazole]	> 10
Cc1nc(C)c(S(=O)(=O)N2CCC(c3nn4ncnc4cc3C)CC2)s1 [Compound 215, 2,4-dimethyl-5-((4-(7-methyl-[1,2,4]triazolo[1,5-b]pyridazin-6-yl)piperidin-1-yl)sulfonyl)thiazole]	> 10
Cc1cc2ncnn2nc1C1CCN(S(=O)(=O)c2cnc(C)n2C)CC1 [Compound 216, 6-(1-((1,2-dimethyl-1H-imidazol-5-yl)sulfonyl)piperidin-4-yl)-7-methyl-[1,2,4]triazolo[1,5-b]pyridazine]	0.689
Cc1cc(C#N)cnc1C1CCN(S(=O)(=O)c2cnn(C)c2C)CC1 [Compound 217, 6-(1-((1,5-Dimethyl-1H-pyrazol-4-yl)sulfonyl)piperidin-4-yl)-5-methylnicotinonitrile]	> 10
